This assay has as its system Patients with glaucoma. Kind of assay: Intraocular pressure of glaucoma patients measured by applanation tonometry during eyedrop treatment. The assay is classed as in vivo, human. The settings on record: average of last six measurements. The method, then:
Patients with glaucoma which had led to glaucomatous damage were treated. All the patients had previously been treated with timolol 0.5% eyedrops, and in some cases with a combination therapy of timolol 0.5% and another antiglaucomatous agent. The initial state of the intraocular pressure was measured during the previous therapy by determining the average of the last six measurements during the previous therapy. Two groups of patients were then treated according to the invention. […] They formed the group of decompensated glaucomas. Group 2 comprised patients who had normalized intraocular pressures on treatment with timolol 0.5%. They formed the group of compensated glaucomas. […] A third group formed of 11 patients was treated in the same manner with eyedrops which contained only 0.5% lactalbumin hydrolyzate fraction from example 5. The intraocular pressure was checked initially after one day, after two days and then weekly. The measurements of intraocular pressure took place at various times of day (morning, midday, late afternoon) by applanation tonometry. In total, 18 patients with an average age of 56.6 years, of whom 8 were male and 10 patients were female, were treated for 9 weeks.

`CC(C)(C)NC[C@H](O)COc1nsnc1N1CCOCC1` [timolol]: the “average intraocular pressure by applanation before the treatment according to the invention” value is, setting by setting: (group 1 decompensated glaucomas, on timolol 0.5% or combination therapy with another antiglaucomatous agent, range of variation 3.6 mmHg) 26.4 mmHg; (group 2 compensated glaucomas, on timolol 0.5%, range of variation 1.6 mmHg) 19.2 mmHg.
